In the supplement of paper PMC10307832:

Legend:
Experiment in all cases: relative viability (nuclei count vs DMSO), 5 days (fraction); higher = more cells survive
[1] = compound: Cc1cnc(Nc2ccc(OCCN3CCCC3)cc2)nc1Nc1cccc(S(=O)(=O)NC(C)(C)C)c1 [Fedratinib]
Outline: (§1)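 Hoechst staining, done together with fixation and permeabilisation, marked nuclei for 4× imaging and MetaXpress counting. This followed 5 days without medium change after lung cancer cell lines, kept overnight at 37 °C in 1536-well plates, were pinned with five library-drug doses (not always all listed) spaced by √10 on vehicle-anchored plates. Viability is the ratio of treated-well to vehicle-well nuclei, expressed as a median across plates. Plates passed only at control CV below 25% with at least one doubling.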

[2] = compound: COC1=CC=C(C=C1)COC2=C(C=C(C=C2)CC3=CN=C(N=C3N)N)OC [GW-2580]
Outline: as §1

[3] = compound: COC1=CC=C(C=C1)COC2=C(C=C(C=C2)CC3=CN=C(N=C3N)N)OC [GW-2580] + CC(C)C[C@H](NC(=O)[C@H](Cc1ccccc1)NC(=O)c1cnccn1)B(O)O [Bortezomib] (partner 0.002 µM)
Outline: (§2)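 Cells from lung cancer lines were seeded into 1536-well plates and, one day later, dosed by pin tool. Treatments were either a single drug or a fixed dose of an anchor drug with five library-drug doses (not always all listed) in √10 steps. After 5 days, nuclei were stained in a one-step fixation (final 0.05% Triton X-100, 1% formaldehyde, 1 ug/ml Hoechst) and counted on 4× images, and relative viability is the treated-to-vehicle nuclei ratio, as the median of duplicate plates.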

[4] = compound: COC1=CC=C(C=C1)COC2=C(C=C(C=C2)CC3=CN=C(N=C3N)N)OC [GW-2580] + Nc1nc2[nH]cc(CCc3ccc(C(=O)N[C@@H](CCC(=O)O)C(=O)O)cc3)c2c(=O)[nH]1 [Pemetrexed] (partner 0.2 µM)
Outline: as §2

Cell Line	relative viability ([1]; 0.1 µM)	relative viability ([1]; 0.3162 µM)	relative viability ([1]; 1 µM)	relative viability ([2]; 0.08 µM)	relative viability ([2]; 0.8 µM)	relative viability ([2]; 2.53 µM)	relative viability ([2]; 8 µM)	relative viability ([3]; first compound 0.08 µM)	relative viability ([3]; first compound 0.8 µM)	relative viability ([3]; first compound 2.53 µM)	relative viability ([3]; first compound 8 µM)	relative viability ([4]; first compound 0.08 µM)	relative viability ([4]; first compound 0.8 µM)	relative viability ([4]; first compound 2.53 µM)	relative viability ([4]; first compound 8 µM)
COR-L 105	0.827	1.1	0.664	1.01	1.05	0.932	0.908	0.829	0.99	0.67	0.797	1.26	1.08	1.21	0.962
ChaGo-K-1	0.953	0.948	0.958	0.938	0.985	1.01	0.999	0.996	1.09	0.989	1	0.274	0.256	0.267	0.262
EKVX	1.06	0.952	0.978	0.962	1.22	0.81	0.941	1.09	1.12	0.874	1.01	0.434	0.392	0.355	0.358
EMC-BAC-2	1.1	1.01	0.833	1.02	1.12	0.643	0.901	1.11	1.16	1.02	1.05	0.503	0.43	–	0.502
EPLC-272H	0.921	0.938	0.327	0.995	1.15	0.763	0.891	1.33	1.07	0.963	1.01	0.325	0.283	0.342	0.329
H3255	0.963	0.923	0.86	0.954	1.2	0.894	0.85	0.542	0.998	0.579	0.749	0.553	0.609	0.554	0.552
HARA	0.863	0.903	0.803	1.11	1.16	0.951	0.902	1.2	1.17	1.33	1.31	0.289	0.254	0.29	0.299
HCC-15	0.869	0.972	0.911	1.08	1.19	0.98	1.02	1.06	1.16	1.05	1.02	0.228	0.235	0.235	0.251
HCC-44	0.963	0.982	0.882	0.981	1.03	0.896	1.01	0.95	0.997	0.822	0.914	0.727	0.638	0.649	0.666
HCC-78	0.87	0.869	0.96	0.95	1.21	0.675	0.933	0.457	0.422	0.353	0.465	0.972	0.939	0.909	0.948
HCC-366	0.997	1.02	0.962	0.997	1.06	1.11	1.07	1.22	1.08	1.24	1.12	0.194	0.145	0.16	0.121
